Test results published in the NIST ThermoML archive (doi:10.1007/s10765-008-0535-5).

Experiment: molar heat capacity at constant volume
Settings: Liquid, Vacuum adiabatic calorimetry

FCF [difluoromethane]
Settings	molar heat capacity at constant volume [J/K/mol]
268.15 K, 8268 kPa	49.47
268.15 K, 8502 kPa	48.8
269.15 K, 9280 kPa	49.32
269.15 K, 9512 kPa	49.68
270.15 K, 10291 kPa	49.47
270.15 K, 10521 kPa	49.84
271.15 K, 11302 kPa	49.42
271.15 K, 11531 kPa	49.53
272.15 K, 12312 kPa	49.94
272.15 K, 12421 kPa	50.57
272.15 K, 12540 kPa	49.06
273.15 K, 13321 kPa	49.06
273.15 K, 13429 kPa	49.79
273.15 K, 13551 kPa	50.25
274.15 K, 14330 kPa	49.94
274.15 K, 14438 kPa	49.63
274.15 K, 14560 kPa	49.37
275.15 K, 15337 kPa	49.47
275.15 K, 15444 kPa	49.84
275.15 K, 15568 kPa	49.47
276.15 K, 16344 kPa	49.89
276.15 K, 16452 kPa	49.84
276.15 K, 16577 kPa	49.73
277.15 K, 17350 kPa	49.32
277.15 K, 17457 kPa	49.63
277.15 K, 17583 kPa	49.99
278.15 K, 18354 kPa	49.89
278.15 K, 18462 kPa	50.25
278.15 K, 18589 kPa	49.47
279.15 K, 19358 kPa	49.89
279.15 K, 19465 kPa	49.79
279.15 K, 19595 kPa	50.15
280.15 K, 20361 kPa	49.63
280.15 K, 20468 kPa	50.2
280.15 K, 20598 kPa	49.99
281.15 K, 21363 kPa	50.46
281.15 K, 21470 kPa	49.63
281.15 K, 21601 kPa	49.89
282.15 K, 22363 kPa	49.58
282.15 K, 22472 kPa	50.25
282.15 K, 22602 kPa	50.05
283.15 K, 23363 kPa	50.41
283.15 K, 23473 kPa	50.15
283.15 K, 23603 kPa	49.94
284.15 K, 24362 kPa	50.31
284.15 K, 24472 kPa	49.94
284.15 K, 24606 kPa	50.25
285.15 K, 25359 kPa	50.15
285.15 K, 25470 kPa	50.51
285.15 K, 25603 kPa	50.25
286.15 K, 26356 kPa	50.51
286.15 K, 26466 kPa	50.62
286.15 K, 26598 kPa	50.2
287.15 K, 27351 kPa	50.36
287.15 K, 27461 kPa	50.2
287.15 K, 27594 kPa	50.36
288.15 K, 28345 kPa	50.57
288.15 K, 28454 kPa	50.62
288.15 K, 28588 kPa	50.41
289.15 K, 5774 kPa	51.24
289.15 K, 5835 kPa	49.79
289.15 K, 29338 kPa	50.46
289.15 K, 29446 kPa	50.72
289.15 K, 29581 kPa	51.09
290.15 K, 6570 kPa	50.62
290.15 K, 6631 kPa	50.93
291.15 K, 7365 kPa	51.14
291.15 K, 7428 kPa	51.19
292.15 K, 8161 kPa	51.24
292.15 K, 8224 kPa	51.14
293.15 K, 8956 kPa	51.4
293.15 K, 9019 kPa	51.71
294.15 K, 9752 kPa	51.66
294.15 K, 9815 kPa	50.83
295.15 K, 10546 kPa	51.19
295.15 K, 10610 kPa	51.56
296.15 K, 11341 kPa	51.19
296.15 K, 11405 kPa	51.5
297.15 K, 12135 kPa	51.61
297.15 K, 12199 kPa	51.35
298.15 K, 12929 kPa	51.5
298.15 K, 12993 kPa	51.92
299.15 K, 13723 kPa	51.66
299.15 K, 13787 kPa	51.82
300.15 K, 14517 kPa	51.66
300.15 K, 14581 kPa	52.08
301.15 K, 15309 kPa	52.34
301.15 K, 15374 kPa	51.92
302.15 K, 16102 kPa	52.08
302.15 K, 16167 kPa	52.23
303.15 K, 16894 kPa	52.13
303.15 K, 16960 kPa	52.49
304.15 K, 17685 kPa	52.13
304.15 K, 17752 kPa	52.54
305.15 K, 18476 kPa	52.75
305.15 K, 18543 kPa	52.6
306.15 K, 19267 kPa	52.75
306.15 K, 19335 kPa	52.8
307.15 K, 20125 kPa	52.49
308.15 K, 20848 kPa	52.91
308.15 K, 20915 kPa	52.8
309.15 K, 21639 kPa	52.7
309.15 K, 21704 kPa	53.32
310.15 K, 22429 kPa	52.86
310.15 K, 22492 kPa	53.12
311.15 K, 23217 kPa	53.17
311.15 K, 23281 kPa	53.69
312.15 K, 24005 kPa	53.64
312.15 K, 24068 kPa	53.79
313.15 K, 24793 kPa	53.53
313.15 K, 24855 kPa	53.79
314.15 K, 25579 kPa	53.79
314.15 K, 25641 kPa	53.43
315.15 K, 26364 kPa	53.58
315.15 K, 26427 kPa	54
316.15 K, 27149 kPa	53.53
316.15 K, 27212 kPa	54.68
317.15 K, 27934 kPa	54.42
317.15 K, 27996 kPa	54.21
318.15 K, 28719 kPa	54.1
318.15 K, 28779 kPa	54.78
